Test results published in EP2832348B1, “METHOD FOR DISSOLVING FLAVONOID COMPOUND, CARBON GLYCOSIDE COMPOUND, OR STILBENE COMPOUND AND METHOD FOR PREPARING AN INJECTION OR A POWDER FOR INJECTION” (Kunming Pharmaceutical Corp., priority 2012, dated 2013).
Values after ≈ are worked out from the molar mass of the structure shown.

How the values were obtained:
[1] = Dissolving the compound with solubilizer in heated, vacuum-stirred water for injection under nitrogen or argon gas (preparation tank); assay type: physicochemical; conditions: kept at 80 °C, nitrogen gas
Description: In view of this, the present invention provides a method for dissolving a carbon glycoside compound or a stilbene compound, characterized in that the method comprises the following steps: • heating water for injection to 80-98 °C, followed by stirring under vacuum condition at 30-80 °C, and then adding the carbon glycoside compound or the stilbene compound along with a solubilizer under the protection of nitrogen gas or argon gas to obtain a solution of said compounds; • wherein the solubilizer is one or a mixture of two or more of gastrodin, water-soluble cyclodextrin and ethanol, and wherein the water-soluble cyclodextrin is one or a mixture of two or more of methyl-β-cyclodextrin, thioether-β-cyclodextrin and sulfobutyl ether-β-cyclodextrin; and • wherein the mass ratio of the carbon glycoside compound or the stilbene compound to the solubilizer is 1:1-20.
Disclosed is a method for dissolving a flavonoid compound, a carbon glycoside compound or a stilbene compound, including: • mixing the flavonoid compound, the carbon glycoside compound or the stilbene compound with a solubilizer to obtain a reactant; and • heating water for injection to 80-98 °C, followed by stirring under vacuum conditions at 30-80 °C, and then adding the reactant under the protection of nitrogen gas or argon gas to obtain a solution of the reactant.
Considering the sensitivity to heat or light of the flavonoid compound, the carbon glycoside compound or the stilbene compound, a method is provided by heating water for injection to 80-98 °C to remove dissolved oxygen and other gases in water, which reduces the surface tension of water, increases the contact area of water with the flavonoid compound, the carbon glycoside compound or the stilbene compound, thus increasing the dissolution speed. Meanwhile, pre-heating the water for injection can effectively avoid degradation of the flavonoid compound, the carbon glycoside compound or the stilbene compound due to exposure to the dissolved oxygen, to eliminate unstable factors of the flavonoid compound, the carbon glycoside compound or the stilbene compound. The vacuum conditions can achieve further deoxygenation, facilitating the dissolution of the flavonoid compound, the carbon glycoside compound or the stilbene compound in water. Nitrogen gas or argon gas provides an inert atmosphere, which further reduces the surface tension of the materials, increases the contact area of the flavonoid compound, the carbon glycoside compound or the stilbene compound with water, and increases the dissolution speed.

[2] = Solubility of triptophenolide in aqueous solutions with different concentrations of gastrodin and/or water-soluble cyclodextrin; assay type: physicochemical; conditions: aqueous solution of solubilizer
Text: Table 1. Solubility of triptophenolide in aqueous solutions with different concentrations of gastrodin and/or water-soluble cyclodextrin

dissolved in (time) ([1]; Example 35: 5 g with Gastrodin 80 g in 1000 ml, water heated to 95 °C, vacuum stirring 10 minutes): about 5 minutes | dissolved in (time) ([1]; Example 36: 20 g with Gastrodin 200 g in 1000 ml, water heated to 95 °C, vacuum stirring 10 minutes): about 5 minutes | dissolved in (time) ([1]; Example 37: 10 g with Gastrodin 80 g in 1000 ml, water heated to 95 °C, vacuum stirring 10 minutes): about 5 minutes | dissolved in (time) ([1]; Example 38: 25 g with Gastrodin 80 g, Hydroxypropyl-β-cyclodextrin 30 g in 1000 ml, water heated to 95 °C, vacuum stirring 10 minutes): about 5 minutes | dissolved in (time) ([1]; Example 47: 5 g with Methyl-β-cyclodextrin 30 g in 1000 ml, water heated to 88 °C, vacuum stirring 40 minutes): about 5 minutes | dissolved in (time) ([1]; Example 51: 10 g with Methyl-β-cyclodextrin 30 g in 1000 ml, water heated to 95 °C, vacuum stirring 10 minutes): about 5 minutes | dissolved in (time) ([1]; Example 52: 10 g with Thioether-β-cyclodextrin 30 g in 1000 ml, water heated to 95 °C, vacuum stirring 10 minutes): about 5 minutes | dissolved in (time) ([1]; Example 55: 10 g with Methyl-β-cyclodextrin 50 g in 1000 ml, water heated to 95 °C, vacuum stirring 10 minutes): about 5 minutes | dissolved in (time) ([1]; Example 58: 20 g with Hydroxypropyl-β-cyclodextrin 50 g in 1000 ml, water heated to 95 °C, vacuum stirring 10 minutes): about 5 minutes | dissolved in (time) ([1]; Example 59: 20 g with Methyl-β-cyclodextrin 50 g in 1000 ml, water heated to 95 °C, vacuum stirring 10 minutes): about 5 minutes | dissolved in (time) ([1]; Example 61: 20 g with Sulfobutyl ether-β-cyclodextrin 50 g in 1000 ml, water heated to 95 °C, vacuum stirring 10 minutes): about 5 minutes | dissolved in (time) ([1]; Example 63: 5 g with Gastrodin 100 g in 1000 ml, water heated to 95 °C, vacuum stirring 10 minutes): about 5 minutes | dissolved in (time) ([1]; Example 65: 5 g with Gastrodin 100 g in 1000 ml, water heated to 95 °C, vacuum stirring 10 minutes): about 5 minutes | dissolved in (time) ([1]; Example 68: 50 g with Hydroxypropyl-β-cyclodextrin 80 g in 1000 ml, water heated to 95 °C, vacuum stirring 10 minutes): about 5 minutes | dissolved in (time) ([1]; Example 69: 50 g with Methyl-β-cyclodextrin 80 g in 1000 ml, water heated to 95 °C, vacuum stirring 10 minutes): about 5 minutes | dissolved in (time) ([1]; Example 70: 50 g with Thioether-β-cyclodextrin 80 g in 1000 ml, water heated to 95 °C, vacuum stirring 10 minutes): about 5 minutes | dissolved in (time) ([1]; Example 71: 50 g with Sulfobutyl ether-β-cyclodextrin 80 g (formula; text: hydroxypropyl-β-cyclodextrin) in 1000 ml, water heated to 95 °C, vacuum stirring 10 minutes): about 5 minutes | dissolved in (time) ([1]; Example 72: 50 g with Hydroxypropyl-β-cyclodextrin 80 g in 1000 ml, water heated to 95 °C, vacuum stirring 10 minutes): about 5 minutes | dissolved in (time) ([1]; Example 73: 50 g with Hydroxypropyl-β-cyclodextrin 80 g in 1000 ml, water heated to 95 °C, vacuum stirring 10 minutes): about 5 minutes | dissolved in (time) ([1]; Example 74: 5 g with Gastrodin 0.5 g in 1000 ml, water heated to 95 °C, vacuum stirring 10 minutes): about 5 minutes | dissolved in (time) ([1]; Example 80: 10 g with Hydroxypropyl-β-cyclodextrin 30 g in 1000 ml, water heated to 95 °C, vacuum stirring 10 minutes): about 5 minutes | solubility ([2]; aqueous with cosolvent or surfactant or cyclodextrin, Gastrodin concentration 1 %): 3.19 mg/mL (≈ 7.85 mM) | solubility ([2]; aqueous with cosolvent or surfactant or cyclodextrin, Gastrodin concentration 3 %): 5.1 mg/mL (≈ 12.5 mM) | solubility ([2]; aqueous with cosolvent or surfactant or cyclodextrin, Gastrodin concentration 5 %): 7.11 mg/mL (≈ 17.5 mM) | solubility ([2]; aqueous with cosolvent or surfactant or cyclodextrin, Gastrodin concentration 8 %): 9.17 mg/mL (≈ 22.6 mM) | solubility ([2]; aqueous with cosolvent or surfactant or cyclodextrin, Gastrodin concentration 10 %): 11.4 mg/mL (≈ 28.1 mM) | solubility ([2]; aqueous with cosolvent or surfactant or cyclodextrin, Gastrodin concentration 15 %): 11.8 mg/mL (≈ 28.9 mM) | solubility ([2]; aqueous with cosolvent or surfactant or cyclodextrin, Gastrodin concentration 25 %): 38.4 mg/mL (≈ 94.4 mM) | solubility ([2]; aqueous with cosolvent or surfactant or cyclodextrin, Gastrodin concentration 30 %): 60.4 mg/mL (≈ 149 mM) | solubility ([2]; aqueous with cosolvent or surfactant or cyclodextrin, Gastrodin concentration 35 %): 87.8 mg/mL (≈ 216 mM) | solubility ([2]; aqueous with cosolvent or surfactant or cyclodextrin, Gastrodin concentration 40 %): 85.1 mg/mL (≈ 209 mM) | solubility ([2]; aqueous with cosolvent or surfactant or cyclodextrin, Gastrodin concentration 45 %): 98 mg/mL (≈ 241 mM) | solubility ([2]; aqueous with cosolvent or surfactant or cyclodextrin, Gastrodin concentration 50 %): 105 mg/mL (≈ 258 mM) | solubility ([2]; aqueous with cosolvent or surfactant or cyclodextrin, Hydroxypropyl-β-cyclodextrin concentration 1 %): 4.8 mg/mL (≈ 11.8 mM) | solubility ([2]; aqueous with cosolvent or surfactant or cyclodextrin, Hydroxypropyl-β-cyclodextrin concentration 3 %): 10.8 mg/mL (≈ 26.5 mM) | solubility ([2]; aqueous with cosolvent or surfactant or cyclodextrin, Hydroxypropyl-β-cyclodextrin concentration 5 %): 20 mg/mL (≈ 49.3 mM) | solubility ([2]; aqueous with cosolvent or surfactant or cyclodextrin, Hydroxypropyl-β-cyclodextrin concentration 8 %): 26.1 mg/mL (≈ 64.3 mM) | solubility ([2]; aqueous with cosolvent or surfactant or cyclodextrin, Hydroxypropyl-β-cyclodextrin concentration 10 %): 34.1 mg/mL (≈ 83.9 mM) | solubility ([2]; aqueous with cosolvent or surfactant or cyclodextrin, Hydroxypropyl-β-cyclodextrin concentration 15 %): 43.3 mg/mL (≈ 106 mM) | solubility ([2]; aqueous with cosolvent or surfactant or cyclodextrin, Hydroxypropyl-β-cyclodextrin concentration 20 %): 59.2 mg/mL (≈ 146 mM) | solubility ([2]; aqueous with cosolvent or surfactant or cyclodextrin, Hydroxypropyl-β-cyclodextrin concentration 25 %): 64.3 mg/mL (≈ 158 mM) | solubility ([2]; aqueous with cosolvent or surfactant or cyclodextrin, Hydroxypropyl-β-cyclodextrin concentration 30 %): 116 mg/mL (≈ 286 mM) | solubility ([2]; aqueous with cosolvent or surfactant or cyclodextrin, Hydroxypropyl-β-cyclodextrin concentration 35 %): 159 mg/mL (≈ 392 mM) | solubility ([2]; aqueous with cosolvent or surfactant or cyclodextrin, Hydroxypropyl-β-cyclodextrin concentration 40 %): 189 mg/mL (≈ 464 mM) | solubility ([2]; aqueous with cosolvent or surfactant or cyclodextrin, Hydroxypropyl-β-cyclodextrin concentration 45 %): 181 mg/mL (≈ 444 mM) | solubility ([2]; aqueous with cosolvent or surfactant or cyclodextrin, Hydroxypropyl-β-cyclodextrin concentration 50 %): 183 mg/mL (≈ 451 mM) | solubility ([2]; aqueous with cosolvent or surfactant or cyclodextrin, Solubilizer concentration: Gastrodin 0 %, Hydroxypropyl-β-cyclodextrin 3 %): 10.8 mg/mL (≈ 26.5 mM) | solubility ([2]; aqueous with cosolvent or surfactant or cyclodextrin, Solubilizer concentration: Gastrodin 1 %, Hydroxypropyl-β-cyclodextrin 3 %): 14.8 mg/mL (≈ 36.4 mM) | solubility ([2]; aqueous with cosolvent or surfactant or cyclodextrin, Solubilizer concentration: Gastrodin 3 %, Hydroxypropyl-β-cyclodextrin 3 %): 16.2 mg/mL (≈ 39.9 mM) | solubility ([2]; aqueous with cosolvent or surfactant or cyclodextrin, Solubilizer concentration: Gastrodin 5 %, Hydroxypropyl-β-cyclodextrin 3 %): 22.6 mg/mL (≈ 55.6 mM) | solubility ([2]; aqueous with cosolvent or surfactant or cyclodextrin, Solubilizer concentration: Gastrodin 8 %, Hydroxypropyl-β-cyclodextrin 3 %): 30.9 mg/mL (≈ 76.1 mM) | solubility ([2]; aqueous with cosolvent or surfactant or cyclodextrin, Solubilizer concentration: Gastrodin 10 %, Hydroxypropyl-β-cyclodextrin 3 %): 39.8 mg/mL (≈ 98 mM) | solubility ([2]; aqueous with cosolvent or surfactant or cyclodextrin, Solubilizer concentration: Gastrodin 15 %, Hydroxypropyl-β-cyclodextrin 3 %): 56 mg/mL (≈ 138 mM) | solubility ([2]; aqueous with cosolvent or surfactant or cyclodextrin, Solubilizer concentration: Gastrodin 20 %, Hydroxypropyl-β-cyclodextrin 3 %): 107 mg/mL (≈ 264 mM) | solubility ([2]; aqueous with cosolvent or surfactant or cyclodextrin, Solubilizer concentration: Gastrodin 25 %, Hydroxypropyl-β-cyclodextrin 3 %): 127 mg/mL (≈ 312 mM) | solubility ([2]; aqueous with cosolvent or surfactant or cyclodextrin, Solubilizer concentration: Gastrodin 30 %, Hydroxypropyl-β-cyclodextrin 3 %): 181 mg/mL (≈ 446 mM) | solubility ([2]; aqueous with cosolvent or surfactant or cyclodextrin, Solubilizer concentration: Gastrodin 35 %, Hydroxypropyl-β-cyclodextrin 3 %): 233 mg/mL (≈ 574 mM) | solubility ([2]; aqueous with cosolvent or surfactant or cyclodextrin, Solubilizer concentration: Gastrodin 40 %, Hydroxypropyl-β-cyclodextrin 3 %): 197 mg/mL (≈ 485 mM) | solubility ([2]; aqueous with cosolvent or surfactant or cyclodextrin, Solubilizer concentration: Gastrodin 45 %, Hydroxypropyl-β-cyclodextrin 3 %): 187 mg/mL (≈ 460 mM) | solubility ([2]; aqueous with cosolvent or surfactant or cyclodextrin, Solubilizer concentration: Gastrodin 50 %, Hydroxypropyl-β-cyclodextrin 3 %): 188 mg/mL (≈ 463 mM) | solubility ([2]; water, Gastrodin concentration 0 %): 1.75 mg/mL (≈ 4.31 mM) | solubility ([2]; water, Hydroxypropyl-β-cyclodextrin concentration 0 %): 1.75 mg/mL (≈ 4.31 mM)
Compound: OC[C@H]1O[C@@H](Oc2cc(/C=C/c3cc(O)cc(O)c3)ccc2O)[C@H](O)[C@@H](O)[C@@H]1O
